Data reported in patent US11179348B2, “Combination comprising pterostilbene for the treatment of cancer” (FUNDACIÓN UNIVERSIDAD CATÓLICA DE VALENCIA SAN VICENTE …, priority 2015, dated 2021).

Legend:
[1] = system: MeWo melanoma; assay: In vivo growth of MeWo melanoma xenografts in nu/nu mice; design: species or system human; conditions: MeWo-RFP; 35 days after inoculation; Pter 30 mg/kg i.v. every 48 h and/or CRC infusion 0.3 μg/h
[2] = system: AsPC-1 pancreatic cancer; assay: In vivo growth of AsPC-1 pancreatic cancer xenografts; design: species or system human; conditions: AsPC-1-RFP; 28 days after inoculation; Pter and/or CRC
[3] = system: MelJuso melanoma; assay: In vivo growth of MelJuso melanoma xenografts in nu/nu mice; design: species or system human; conditions: MelJuso-RFP; 35 days after inoculation; Pter 30 mg/kg i.v. every 48 h and/or CRC infusion 0.3 μg/h
[4] = system: BxPC-3 pancreatic cancer; assay: In vivo growth of BxPC-3 pancreatic cancer xenografts; design: species or system human; conditions: BxPC-3-RFP; 35 days after inoculation; Pter and/or CRC
[5] = system: A2058 melanoma; assay: In vivo growth of A2058 melanoma xenografts in nu/nu mice; design: species or system human; conditions: A2058-RFP; 35 days after inoculation; Pter 30 mg/kg i.v. every 48 h and/or CRC infusion 0.3 μg/h
[6] = system: ACTH; assay: Plasma ACTH levels (ELISA) in tumor-bearing mice; type: in vivo; conditions: 6 h circadian time
Description: (§1) Measurement of ACTH, Corticosterone, and NORA Levels.
(§2) Plasma levels of ACTH (Calbiotech, Inc., Spring Valley, Calif.), corticosterone (Kamiyama Biomedical Co., Seattle, Wash.), and NORA (IBL, Hamburg, Germany) were quantified by ELISA according to the instructions of the suppliers.

[7] = system: corticosterone; assay: Plasma corticosterone levels (ELISA) in tumor-bearing mice; type: in vivo; conditions: 12 h circadian time
Description: as §1, §2

[8] = system: glucocorticoid receptors (GR); assay: GR content of human cancer cells by [3H]-labeled ligand whole-cell binding assay

## C[C@]12C[C@H](O)[C@H]3[C@@H](CCC4=CC(=O)CC[C@@]43C)[C@@H]1CC[C@@H]2C(=O)CO [CRC, corticosterone, reference compound]
[1]
  Tumor vol.: 426 ± 116 mm^3
[2]
  Tumor vol.: 1066 ± 235 mm^3
[3]
  Tumor vol.: 240 ± 94 mm^3
[4]
  Tumor vol.: 588 ± 158 mm^3
[5]
  Tumor vol.: 857 ± 185 mm^3
[6]; AsPC-1-bearing mice, day 28
  ACTH: 106 ± 17 pg/mL plasma
[6]; BxPC-3-bearing mice, day 35
  ACTH: 55 ± 12 pg/mL plasma
[7]; A2058-bearing mice, day 35
  CRC: 205 ± 48 ng/mL plasma
[7]; AsPC-1-bearing mice, day 28
  CRC: 324 ± 48 ng/mL plasma
[7]; BxPC-3-bearing mice, day 35
  CRC: 177 ± 36 ng/mL plasma
[7]; MeWo-bearing mice, day 35
  CRC: 177 ± 29 ng/mL plasma
[7]; MelJuso-bearing mice, day 35
  CRC: 164 ± 41 ng/mL plasma
[8]; A2058-RFP tumors, day 35
  GR number (binding sites/cell): 80 ± 7 10^3 GR/cell
[8]; AsPC-1-RFP tumors, day 28
  GR number (binding sites/cell): 67 ± 7 10^3 GR/cell
[8]; BxPC-3-RFP tumors, day 35
  GR number (binding sites/cell): 134 ± 36 10^3 GR/cell
[8]; MeWo-RFP tumors, day 35
  GR number (binding sites/cell): 49 ± 7 10^3 GR/cell
[8]; MelJuso-RFP tumors, day 35
  GR number (binding sites/cell): 46 ± 6 10^3 GR/cell
